Measurements from patent publication US20130281409A1, “Myelin Sheath Fatty Acids that Resolve Neuroinflammation” (priority 2012, published 2013).

Assays:
[1] = system: EAE in PLP139-151-immunized SJL/J mice; test: EAE, lipid administered prophylactically (co-immunization with PLP139-151); type: in vivo, mouse; conditions: 6 μg/injection; s.c. with PLP139-151 on day 0, i.p. on days 4 and 7
Method: Animal experiments were approved by, and performed in compliance with, the National Institute of Health guidelines of the Institutional Animal Care and Use Committee at Stanford University. For induction of EAE, 8- to 12-week-old female SJL/J mice (Jackson Laboratory) were immunized subcutaneously with 100 μg of PLP139-151 emulsified in CFA (Difco Laboratories). Three injections of PGPC (6 μg/mouse/injection) or vehicle (0.05% Tween-20 in PBS) were delivered on days 0, 4, and 7 after immunization with PLP139-151. On day 0, the lipid or vehicle was emulsified together with PLP139-151 in CFA and administered by subcutaneous injection. At subsequent time points, lipid or vehicle was injected intraperitoneally. EAE was assessed as previously described. To induce EAE in SJL/J mice (Jackson Mice), we immunized 8- to 12-week-old female animals subcutaneously with 100 μg of PLP139-151 emulsified in CFA (Difco Laboratories). Prophylactic administration of lipid: Three injections of PGPC or sphingomyelin (6 μg/mouse/injection) or vehicle (0.05% Tween-20 in PBS) were delivered on days 0, 4, and 7 after immunization with PLP139-151. […] Clinical disease was monitored daily using the following scoring system: 0, no disease; 1, limp tail; 2, hind limb weakness; 3, hind limb paralysis; 4, hind limb and forelimb paralysis; 5, death. […]

CD4+ T cells = test: CD69 expression on lymph node cells from PGPC-treated EAE mice (flow cytometry); type: in vivo, mouse; conditions: lymph node cells of prophylactically treated EAE mice, cultured 4 days with 10 μg/ml PLP139-151
Method: FIG. 9. PGPC treatment of mice with EAE suppresses T-cell activation. (A) Expression of CD69 (an early marker of activation) on CD4+ and CD8+ propidium iodide-negative (i.e. live) lymphocytes isolated from PGPC—or vehicle-treated EAE mice and cultured for 4 days with 10 μg/ml of PLP139-151. The ratio of CD69+CD4+:CD69−CD4+ is 14.2%:39.6% for lymph node cells from vehicle-treated EAE mice, and 7.96%:55.2% for cells from PGPC-treated EAE mice. […] (B) Proliferation and (C) cytokine production of splenocytes isolated from the vehicle- or PGPC-treated EAE mice in panel A. Splenocytes from PGPC-treated mice (gray bars) secreted lower levels of IFN-γ and TNF in response to PLP139-151. *P<0.05, respectively, by Student's t-test comparing PLP139-151-stimulated cells from PGPC-treated mice with PLP139-151-stimulated cells from vehicle-treated mice.
PLP-stimulated cells from PLP139-151-immunized mice administered PGPC prophylactically: SJL/J mice were co-injected with PGPC and PLP139-151 in CFA and sacrificed 48 days later. Lymph node cells and splenocytes were then harvested and re-stimulated in vitro (2.5×10^6 cells/ml) with 10 μg/ml of PLP139-151 or with media alone. […]
Cells were stained according to standard protocols, run on a FACScan flow cytometer (BD Biosciences), and analysed with CellQuest software (BD Immunocytometry Systems) or with FlowJo software version 6.3.2 (Tree Star, Inc.). […]

B cells = test: Apoptosis of anti-IgM F(ab')2/anti-CD40-stimulated purified B cells; type: cell-based, mouse; conditions: 30 μg/ml lipid, anti-IgM F(ab')2 and anti-CD40, 48 hours
Method: Anti-IgM F(ab′)2 fragment/anti-CD40-stimulated purified B cells: We harvested spleens from naive C57BL/6 mice and used a B-cell isolation kit (Miltenyi Biotec) to negatively isolate B cells. We then stimulated 5×10^5 cells/ml of B cells with 5 μg/ml of each of soluble anti-IgM F(ab′)2 fragment (Jackson ImmunoResearch) antibody and anti-CD40 antibody (eBioscience) in the presence of 30 μg/ml of POPS, PGPC, azPC ester, or azPC.
Cells were stained according to standard protocols, run on a FACScan flow cytometer (BD Biosciences), and analysed with CellQuest software (BD Immunocytometry Systems) or with FlowJo software version 6.3.2 (Tree Star, Inc.). The antibody conjugates used were FITC anti-CD4 (clone GK1.5, BD Pharmingen), FITC anti-mouse CD8 (clone 53-6.7, BD Pharmingen), FITC anti-mouse CD3 (clone 145-2C11, eBioscience), PE-anti-rat IgG2A isotype control (BD Pharmingen), and PE-anti-mouse CD69 (clone H1.2F3, eBioscience). 7AAD staining was performed by using the Annexin V-PE Apoptosis Detection Kit I (BD Pharmingen).

| Structure (SMILES) | EAE severity (clinical score) [1] | CD4+CD69+ cells (CD4+ T cells) [%] | CD69−CD4+ cells (CD4+ T cells) [%] | apoptosis of activated B cells (B cells) |
| --- | --- | --- | --- | --- |
| CCCCCCCCCCCCCCCC(=O)OC[C@H](COP(=O)([O-])OCC[N+](C)(C)C)OC(=O)CCCC(=O)O [PGPC, 1-Palmitoyl-2-Glutaroyl-sn-Glycero-3-Phosphocholine] | reduced the severity of EAE | 7.96 | 55.2 |  |
| CCCCCCCC/C=C\CCCCCCCC(=O)O[C@H](COC(=O)CCCCCCCCCCCCCCC)COP(=O)(O)OC[C@H](N)C(=O)O [POPS, 1-Palmitoyl-2-Oleoyl-sn-Glycero-3-[Phospho-L-Serine]] |  |  |  | increased apoptosis |
